Source: patent US20250340574A1, “MODULATORS OF CYSTIC FIBROSIS TRANSMEMBRANE CONDUCTANCE REGULATOR” (Vertex Pharmaceuticals Incorporated, priority 2022, published 2025)
Like-named read-outs stand apart in the source and are kept apart here.

Tests used:
[1] = from Cc1cccc(C)c1-c1cc(OC[C@@H](CC(C)(C)C)NCc2cn3ccc(Br)cc3n2)nc(NS(=O)(=O)c2cccc(C(=O)O)c2)n1; amide bond; 13-membered ring; CDMT/NMM; DMF; 28.2 mM; 3.08 h
[2] = target: T1, CFTR (F508del/MF-HBE cells) (Homo sapiens, UniProt P13569, DEL508-508); assay: Ussing chamber assay of CFTR-mediated short-circuit currents, Assay C (0.026 μM to 25 μM, 6 concentrations); type: cell-based; settings: with 33 nM potentiator and 18 μM Tezacaftor, 20% human serum
T1 construct: human bronchial epithelial (HBE) cells derived from CF subjects heterozygous for F508del and a minimal function CFTR mutation (F508del/MF-HBE); endogenous in cells; host or cells: Primary human bronchial epithelial cells from CF subjects (F508del/MF genotype), differentiated at an air-liquid interface
Outline: (§1)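 F508del/MF-HBE cells grown at air-liquid interface were incubated 18-24 h at 37 °C in 20% human serum with correctors plus 18 μM tezacaftor and a fixed partner compound (33 nM for concentration series, 44 nM at 1 μM). ISC was read at 0 mV after 20 μM forskolin, minus the post-inhibitor current.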

[3] = target: T1, CFTR (F508del/MF-HBE cells); assay: Ussing chamber assay of CFTR-mediated short-circuit currents, Assay D (single concentration of 1 μM); type: cell-based; settings: with 44 nM potentiator and 18 μM Tezacaftor, 18-24 hours, 20% human serum
Outline: as §1

[4] = amide bond, 13-membered ring, CDMT/NMM, DMF
[5] = target: T1, CFTR (F508del/MF-HBE cells); assay: Ussing chamber assay of CFTR-mediated short-circuit currents, Assay A (0.1 μM to 25 μM, 6 concentrations); type: cell-based; settings: with 33 nM potentiator and 18 μM Tezacaftor, 20% human serum; for Emax: 18-24 hours, read-out: A Max activity (%)
Outline: as §1

[6] = target: T1, CFTR (F508del/MF-HBE cells); assay: Ussing chamber assay of CFTR-mediated short-circuit currents, Assay B (0.00001 μM to 25 μM, 12 concentrations); type: cell-based; settings: with 33 nM potentiator and 18 μM Tezacaftor, 20% human serum; for Emax: 18-24 hours, read-out: B Max activity (%)
Outline: as §1

T1 sequence (P13569 with tags, fused parts or gaps DEL508-508): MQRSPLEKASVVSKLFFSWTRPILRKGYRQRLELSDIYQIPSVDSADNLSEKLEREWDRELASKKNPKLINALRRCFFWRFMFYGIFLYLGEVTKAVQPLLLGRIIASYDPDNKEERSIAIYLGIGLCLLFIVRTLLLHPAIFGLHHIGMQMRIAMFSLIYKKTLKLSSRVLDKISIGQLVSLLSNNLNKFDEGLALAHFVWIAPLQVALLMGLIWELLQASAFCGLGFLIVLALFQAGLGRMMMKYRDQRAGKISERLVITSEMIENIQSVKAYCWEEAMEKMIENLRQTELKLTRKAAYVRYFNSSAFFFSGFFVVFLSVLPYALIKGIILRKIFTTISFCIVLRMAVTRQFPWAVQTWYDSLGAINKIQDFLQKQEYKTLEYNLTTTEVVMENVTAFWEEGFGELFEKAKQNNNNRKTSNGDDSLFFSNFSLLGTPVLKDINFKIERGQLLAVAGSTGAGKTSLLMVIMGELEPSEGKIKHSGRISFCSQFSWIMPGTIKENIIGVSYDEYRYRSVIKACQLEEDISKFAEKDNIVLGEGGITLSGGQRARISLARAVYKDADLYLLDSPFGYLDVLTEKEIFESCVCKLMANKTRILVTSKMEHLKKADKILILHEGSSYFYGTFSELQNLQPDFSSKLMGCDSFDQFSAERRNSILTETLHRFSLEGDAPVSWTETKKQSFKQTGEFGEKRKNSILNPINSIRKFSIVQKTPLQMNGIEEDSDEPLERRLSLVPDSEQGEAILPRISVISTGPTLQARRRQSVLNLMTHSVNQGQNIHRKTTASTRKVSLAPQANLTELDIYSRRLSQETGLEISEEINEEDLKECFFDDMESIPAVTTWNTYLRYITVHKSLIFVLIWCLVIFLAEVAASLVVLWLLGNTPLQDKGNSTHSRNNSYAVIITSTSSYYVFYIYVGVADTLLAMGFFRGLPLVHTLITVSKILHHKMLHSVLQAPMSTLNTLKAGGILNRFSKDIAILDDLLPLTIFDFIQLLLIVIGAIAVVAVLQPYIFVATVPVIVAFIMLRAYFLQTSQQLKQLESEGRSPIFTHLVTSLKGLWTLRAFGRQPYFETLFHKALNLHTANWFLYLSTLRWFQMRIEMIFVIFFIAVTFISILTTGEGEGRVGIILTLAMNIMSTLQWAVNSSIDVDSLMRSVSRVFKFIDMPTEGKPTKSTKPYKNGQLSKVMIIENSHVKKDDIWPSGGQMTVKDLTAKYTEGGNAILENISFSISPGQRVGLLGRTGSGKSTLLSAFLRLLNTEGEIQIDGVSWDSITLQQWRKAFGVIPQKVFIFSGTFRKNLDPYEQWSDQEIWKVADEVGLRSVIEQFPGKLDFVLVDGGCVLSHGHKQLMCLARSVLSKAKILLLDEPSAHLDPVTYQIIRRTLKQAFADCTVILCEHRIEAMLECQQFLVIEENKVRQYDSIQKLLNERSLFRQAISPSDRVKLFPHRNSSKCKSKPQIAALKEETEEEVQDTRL

Structure (SMILES)	Emax [5] [%]	EC50 [5] [nM]	Emax [6] [%]	EC50 [6] [nM]	further results
Cc1cccc(C)c1-c1cc2nc(n1)NS(=N)(=O)c1cccc(c1)C(=O)N(Cc1cnc3oc(C4CC4)cc3n1)[C@H](CC(C)(C)C)CO2 (stereo partly shown)	–	–	–	–	ring closure, isolated yield (from 3-[[[4-[(2R)-2-[(6-Cyclopropylfuro[2,3-b]pyrazin-2-yl)methylamino]-4,4-dimethyl-pentoxy]-6-(2,6-dimethylphenyl)pyrimidin-2-yl]amino]sulfonimidoyl]benzoic acid (hydrochloride salt) (isomer B), amide bond, 13-membered ring, CDMT/NMM, DMF, 10.4 mM): 8%
Cc1cccc(C)c1-c1cc2nc(n1)NS(=O)(=O)c1cccc(c1)C(=O)N(Cc1cn3ccc(Br)cc3n1)[C@H](CC(C)(C)C)CO2	–	–	–	–	ring closure, crude yield [1]: 90%
Cc1cccc(C)c1-c1cc2nc(n1)NS(=O)(=O)c1cccc(c1)C(=O)N(Cc1cnc3oc(C4CC4)cc3n1)C(C1(C(C)C)CC1)CO2 (stereo not shown)	–	–	–	–	ring closure, isolated yield (from Cc1cccc(C)c1-c1cc(OCC(NCc2cnc3oc(C4CC4)cc3n2)C2(C(C)C)CC2)nc(NS(=O)(=O)c2cccc(C(=O)O)c2)n1, amide bond, 13-membered ring, CDMT/NMM, DMF, 25.0 °C): 41%
Cc1cccc(C)c1-c1cc2nc(n1)NS(=O)(=O)c1cccc(c1)C(=O)N(Cc1cnc3oc(C4CC4)cc3n1)C(CC1CC(C)(C)C1)CO2 (stereo not shown)	–	–	–	–	ring closure, isolated yield (from Cc1cccc(C)c1-c1cc(OCC(CC2CC(C)(C)C2)NCc2cnc3oc(C4CC4)cc3n2)nc(NS(=O)(=O)c2cccc(C(=O)O)c2)n1, amide bond, 13-membered ring, CDMT/NMM, DMF, 15.9 mM, 25.0 h): 75%
Cc1cccc(C)c1-c1cc2nc(n1)NS(=O)(=O)c1cccc(c1)C(=O)N(Cc1cncc(Cl)n1)[C@H](CCC(C)(C)C)CO2	–	–	–	–	ring closure, isolated yield (from Cc1cccc(C)c1-c1cc(OC[C@@H](CCC(C)(C)C)NCc2cncc(Cl)n2)nc(NS(=O)(=O)c2cccc(C(=O)O)c2)n1, amide bond, 13-membered ring, CDMT/NMM, DMF, 15.0 mM, 18.0 h): 48%
CC1(C)CCC=CC[C@](OCc2ccccc2)(C(F)(F)F)C2=NN=C(O2)c2nc(c(C(F)(F)F)cc2[N+](=O)[O-])N1 (mixture of isomers)	–	–	–	–	ring closure, isolated yield (from C=CCCC(C)(C)Nc1nc(-c2nnc([C@@](CC=C)(OCc3ccccc3)C(F)(F)F)o2)c([N+](=O)[O-])cc1C(F)(F)F, rcm bond, 14-membered ring, Zhan catalyst-1B (20 mol%), DCE, 9.26 mM, 72.0 °C, 2.47 h): 40%
Cc1cccc(C)c1-c1cc2nc(n1)NS(=O)(=O)c1cccc(c1)C(=O)N(Cc1cnc3oc(C4CC4)cc3n1)C(C(C(C)C)C(C)C)CO2 (single isomer, unassigned) [Compound I-177, 12-[(6-cyclopropylfuro[2,3-b]pyrazin-2-yl)methyl]-6-(2,6-dimethylphenyl)-11-(1-isopropyl-2-methyl-propyl)-2,2-dioxo-9-oxa-2λ^6-thia-3,5,12,19-tetrazatricyclo[12.3.1.14,8]nonadeca-1(18),4(19),5,7,14,16-hexaen-13-one]	–	–	–	–	ring closure, isolated yield (from Cc1cccc(C)c1-c1cc(OCC(NCc2cnc3oc(C4CC4)cc3n2)C(C(C)C)C(C)C)nc(NS(=O)(=O)c2cccc(C(=O)O)c2)n1, amide bond, 13-membered ring, CDMT/NMM, DMF, 15.0 mM, 68.0 h): 31%; Emax ([2]; 18-24 hours, read-out: C Max activity (%)): > 60%; EC50 [2]: < 1000 nM; D activity at 1 μM (%) [3]: +++ (+++ is >60%)
Cc1cccc(C)c1-c1cc2nc(n1)NS(=O)(=O)c1cccc(c1)C(=O)N(Cc1cnc3oc(Br)cc3n1)[C@H](CC1(C)CC1)CO2 [Compound I-254, (11R)-12-[(6-bromofuro[2,3-b]pyrazin-2-yl)methyl]-6-(2,6-dimethylphenyl)-11-[(1-methylcyclopropyl)methyl]-2,2-dioxo-9-oxa-2λ^6-thia-3,5,12,19-tetrazatricyclo[12.3.1.14,8]nonadeca-1(18),4(19),5,7,14,16-hexaen-13-one]	–	–	–	–	ring closure, isolated yield (from Cc1cccc(C)c1-c1cc(OC[C@@H](CC2(C)CC2)NCc2cnc3oc(Br)cc3n2)nc(NS(=O)(=O)c2cccc(C(=O)O)c2)n1, amide bond, 13-membered ring, CDMT?, 16.0 h): 65%; D activity at 1 μM (%) [3]: ++ (++ is 30-60%)

Second part, led by results:

Emax [5] [%]	EC50 [5] [nM]	Emax [6] [%]	EC50 [6] [nM]	Structure (SMILES)	further results
> 60	< 1000	> 60	1000 to 3000	Cc1cccc(C)c1-c1cc2nc(n1)NS(=O)(=O)c1cccc(c1)C(=O)N(Cc1cnc3oc(C4CC4)cc3n1)[C@H](COC(C)C)CO2 [Compound I-23, (11R)-12-[(6-cyclopropylfuro[2,3-b]pyrazin-2-yl)methyl]-6-(2,6-dimethylphenyl)-11-(isopropoxymethyl)-2,2-dioxo-9-oxa-2λ^6-thia-3,5,12,19-tetrazatricyclo[12.3.1.14,8]nonadeca-1(18),4(19),5,7,14,16-hexaen-13-one]	ring closure, yield after HPLC ([4]; from Cc1cccc(C)c1-c1cc(OC[C@@H](COC(C)C)NCc2cnc3oc(C4CC4)cc3n2)nc(NS(=O)(=O)c2cccc(C(=O)O)c2)n1, 40.6 mM, 14.0 h): 52%
> 60	< 1000	> 60	1000 to 3000	Cc1cccc(C)c1-c1cc2nc(n1)NS(=O)(=O)c1cccc(c1)C(=O)N(Cc1cnc3oc(C4CC4)cc3n1)[C@H](CC13CC(C1)C3)CO2 [Compound I-52, (11R)-11-(1-bicyclo[1.1.1]pentanylmethyl)-12-[(6-cyclopropylfuro[2,3-b]pyrazin-2-yl)methyl]-6-(2,6-dimethylphenyl)-2,2-dioxo-9-oxa-2λ^6-thia-3,5,12,19-tetrazatricyclo[12.3.1.14,8]nonadeca-1(18),4(19),5,7,14,16-hexaen-13-one]	ring closure, yield after HPLC ([4]; from Cc1cccc(C)c1-c1cc(OC[C@@H](CC23CC(C2)C3)NCc2cnc3oc(C4CC4)cc3n2)nc(NS(=O)(=O)c2cccc(C(=O)O)c2)n1, 12.4 mM, 18.0 h): 66%
> 60	< 1000	> 60	< 1000	Cc1cccc(C)c1-c1cc2nc(n1)NS(=O)(=O)c1cccc(c1)C(=O)N(Cc1cnc3nc(C(C)C)n(C)c3n1)[C@H](CC13CC(C1)C3)CO2 [Compound I-88, (11R)-11-(1-bicyclo[1.1.1]pentanylmethyl)-6-(2,6-dimethylphenyl)-12-[(2-isopropyl-3-methyl-imidazo[4,5-b]pyrazin-5-yl)methyl]-2,2-dioxo-9-oxa-2λ^6-thia-3,5,12,19-tetrazatricyclo[12.3.1.14,8]nonadeca-1(18),4(19),5,7,14,16-hexaen-13-one]	ring closure, yield after HPLC ([4]; from Cc1cccc(C)c1-c1cc(OC[C@@H](CC23CC(C2)C3)NCc2cnc3nc(C(C)C)n(C)c3n2)nc(NS(=O)(=O)c2cccc(C(=O)O)c2)n1, 11.0 mM, 16.5 h): 66%
> 60	< 1000	> 60	1000 to 3000	Cc1cccc(C)c1-c1cc2nc(n1)NS(=O)(=O)c1cccc(c1)C(=O)N(Cc1cnc3oc(C4(C)CC4)cc3n1)[C@H](CC1(C)CC1)CO2 [Compound I-96, (11R)-6-(2,6-dimethylphenyl)-12-[[6-(1-methylcyclopropyl)furo[2,3-b]pyrazin-2-yl]methyl]-11-[(1-methylcyclopropyl)methyl]-2,2-dioxo-9-oxa-2λ^6-thia-3,5,12,19-tetrazatricyclo[12.3.1.14,8]nonadeca-1(18),4(19),5,7,14,16-hexaen-13-one]	ring closure, yield after HPLC ([4]; from Cc1cccc(C)c1-c1cc(OC[C@@H](CC2(C)CC2)NCc2cnc3oc(C4(C)CC4)cc3n2)nc(NS(=O)(=O)c2cccc(C(=O)O)c2)n1, 50.0 mM, 6.0 h): 63%
> 60	< 1000	> 60	1000 to 3000	Cc1cccc(C)c1-c1cc2nc(n1)NS(=O)(=O)c1cccc(c1)C(=O)N(Cc1cnc3oc(C(C)(C)C)cc3n1)[C@H](CC1(C)CC1)CO2 [Compound I-98, (11R)-12-[(6-tert-butylfuro[2,3-b]pyrazin-2-yl)methyl]-6-(2,6-dimethylphenyl)-11-[(1-methylcyclopropyl)methyl]-2,2-dioxo-9-oxa-2λ^6-thia-3,5,12,19-tetrazatricyclo[12.3.1.14,8]nonadeca-1(18),4(19),5,7,14,16-hexaen-13-one]	ring closure, yield after HPLC ([4]; from Cc1cccc(C)c1-c1cc(OC[C@@H](CC2(C)CC2)NCc2cnc3oc(C(C)(C)C)cc3n2)nc(NS(=O)(=O)c2cccc(C(=O)O)c2)n1, 44.5 mM, 16.0 h): 55%
> 60	< 1000	> 60	< 1000	Cc1cccc(C)c1-c1cc2nc(n1)NS(=O)(=O)c1cccc(c1)C(=O)N(Cc1cnc3oc(C(C)(C)C)cc3n1)[C@H](CC13CC(C1)C3)CO2 [Compound I-99, (11R)-11-(1-bicyclo[1.1.1]pentanylmethyl)-12-[(6-tert-butylfuro[2,3-b]pyrazin-2-yl)methyl]-6-(2,6-dimethylphenyl)-2,2-dioxo-9-oxa-2λ^6-thia-3,5,12,19-tetrazatricyclo[12.3.1.14,8]nonadeca-1(18),4(19),5,7,14,16-hexaen-13-one]	ring closure, yield after HPLC ([4]; from Cc1cccc(C)c1-c1cc(OC[C@@H](CC23CC(C2)C3)NCc2cnc3oc(C(C)(C)C)cc3n2)nc(NS(=O)(=O)c2cccc(C(=O)O)c2)n1, 29.9 mM, 16.0 h): 54%; D activity at 1 μM (%) [3]: +++ (+++ is >60%)
